Laboratory results taken from ChEMBL document CHEMBL1126250, “Alpha-halo [(phenylphosphinyl)methyl]phosphonates as specific inhibitors of Na(+)-gradient-dependent Na(+)-phosphate cotransport across renal brush border membrane” (1992).

organism: Rattus norvegicus; experiment: In vitro inhibition of Na(+)-gradient-dependent uptake of 32 inorganic phosphate (Pi) by BBM vesicles freshly prepared from the rat renal cortex; assay type: functional; design: concentration or dose not given beside the values

Point of comparison: `O=C(O)P(=O)(O)O` [FOSCARNET], Inhibition -63%. Against it:
- O=P(O)(O)C(F)P(=O)(O)c1ccccc1 (configuration not stated) — higher, -49%
- O=P(O)(O)C(Cl)P(=O)(O)c1ccccc1 (configuration not stated) — higher, -30%
- O=P(O)(O)C(F)(F)P(=O)(O)c1ccccc1 — higher, -39%
- O=P(O)(O)C(Cl)(Cl)P(=O)(O)c1ccccc1 — higher, -39%
- O=P(O)(O)C(Br)(Br)P(=O)(O)c1ccccc1 — higher, -22%
- O=P(O)(O)C(Cl)(Br)P(=O)(O)c1ccccc1 (configuration not stated) — higher, -31%
